Experimental data published in patent publication US20260315434A1, “USE OF GUAIACOL SESQUITERPENE LACTONE DERIVATIVES” (NANJING UNIVERSITY OF CHINESE MEDICINE, priority 2023, published 2026).
Marks after values point to notes of the source that are not given here.

Key:
[1] = system: renal injury markers (Ngal, Havcr1) in kidney tissue; experiment: Unilateral ureteral ligation (UUO) chronic kidney injury, renal injury marker mRNA; type: in vivo, C57BL/6 mice; design: unit not given here; settings: UUO chronic model
From the text: (§1) Chronic Kidney Injury: Mice were randomly divided into five groups. […] Except for the sham-operated mice in the normal group (where only the left ureter was exposed without further manipulation), all other mice underwent unilateral ureteral ligation to establish a chronic kidney injury model as follows: The abdominal skin was disinfected with iodine solution followed by alcohol. An incision was made, and the abdominal layers were dissected sequentially. The left ureter was fully exposed and dissected. A double ligation was performed at the bladder-proximal end of the left ureter using absorbable suture material, followed by closure.
(§2) The blood was allowed to stand at room temperature for 2 hours, then centrifuged at 3000 rpm for 20 minutes. Serum was aspirated, aliquoted, and stored at −70° C. for future use. Following blood collection, euthanize mice by cervical dislocation. Perform laparotomy to remove kidneys, dissect out perirenal fat and capsules. […] Paraffin-embedded specimens undergo HE staining; remaining tissue is stored at −70° C. for future use.

CT26 cells = experiment: Antitumor effect in CT26 colon cancer mouse subcutaneous model; type: in vivo, BALB/c mice; settings: oral, 3 weeks; for Tumor inhibition rate (%) / Tumor weight: 80 μmol/kg/day, CT26; for tumor-inhibiting effect, CT26: result in words
[2] = Conversion (release) of prodrug salts to parent compound in HEPES buffer pH 7.4; type: in vitro ADME; settings: for Release rate (conversion to Compound 1): HEPES pH 7.4, 37 °C
Outline: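 Salt dissolved in water, mixed 1:1 with HEPES solution pH 7.4 (NaCl, KCl, Na2HPO4, glucose) and held at 37° C. At 1, 2, 4, 8 and 12 h, samples were methanol-quenched, centrifuged and analysed by reversed-phase HPLC at 210 nm, with peak areas recorded for conversion to parent compound.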

[3] = system: inflammatory cytokines (TNF, IL-6, IL-1) in renal tissue; experiment: Folic acid-induced acute kidney injury, renal inflammatory factor mRNA; type: in vivo, C57BL/6 mice; settings: folic acid acute model
Method: (§3) Except for the normal group, all other mice were administered folic acid (250 mg/kg) dissolved in 0.9% NaHCO3 solution via intraperitoneal injection to establish an acute kidney injury model.
as §2

T cells = experiment: Proportion of T cells in tumor and spleen of H22 xenograft mice (flow cytometry); type: in vivo, BALB/c mice; settings: for Spleen T cells (%) / Tumor T cells (%): 40 μmol/kg/day, oral, 2 weeks, flow cytometry; for proportion of T cells in tumor tissues and spleens: compared with solvent control, result in words
Method: Once all tumors were dissected, nail-sized tumor pieces were transferred to 1.5 mL Eppendorf tubes and minced with scissors. Transfer the minced tumor tissue suspension to a 15 mL centrifuge tube containing 3-5 mL of digestive enzymes (Collagenase IV 1 mg/mL, Hyaluronidase 1 mg/mL, DNase 120 U/mL). Incubate at 37° C. on a shaking incubator at 200 rpm for 1 hour. After digestion, pass the mixture through a 200-mesh sieve to obtain the tumor cell suspension. Centrifuge the resulting tumor suspension at 1600 rpm for 5 min, aspirate the supernatant, resuspend cells in 1 mL of 1×PBS per tube. Transfer the cell suspension to a 1.5 mL Eppendorf tube, centrifuge at 1600 rpm for 5 min, remove the supernatant, resuspend cells in 100 μL of 1×PBS per tube, add 1 μL of dead/live dye to each tube, mix thoroughly, and incubate at room temperature in the dark for 15 min. […] Position the spleen on a 200-mesh cell strainer. Gently press the spleen using a 10 mL syringe needle. […] Transfer the splenocyte suspension into a 15 mL centrifuge tube. Centrifuge at 1600 rpm for 5 min to collect cells. Wash once with 1×PBS. Add 3 mL red blood cell lysis buffer (diluted with ddH2O) to each tube and incubate for 5 min. After lysis, add 10 mL 1×PBS to each tube to terminate lysis. Centrifuge at 1600 rpm for 5 min. Add 1 mL 1×PBS to each 15 mL centrifuge tube, transfer to 1.5 mL EP tubes, and centrifuge at 1600 rpm for 5 min. Add 1×PBS to each tube containing stained tumor cells and lysed spleen cells for one wash, centrifuge at 1600 rpm for 5 min, and remove the supernatant. Resuspend tumor cells and spleen cells separately in 100 μL 1×PBS. Add 1 μL FcX™ antibody to each tube and incubate at room temperature in the dark for 10 min. After incubation, sequentially add 1 μL each of CD45, CD3, and CD8 antibodies to each tube. Incubate at 4° C. in the dark for 30 min. After staining, wash once with 1 mL PBS. Centrifuge at 1600 rpm for 5 min. Discard the supernatant. Resuspend cells in 300 μL 1×PBS. Filter the cell suspension into a flow cytometry tube and proceed to instrument analysis.

[4] = system: fibrosis-related factors (α-Sma, Col1a1, Tgfb1) in kidney tissue; experiment: UUO chronic kidney injury, renal fibrosis-related factor mRNA; type: in vivo, C57BL/6 mice; design: unit not given here; settings: UUO chronic model
From the text: as §1, §2

[5] = system: renal injury markers (Ngal, Havcr1) in kidney tissue; experiment: Folic acid-induced acute kidney injury, renal injury marker mRNA; type: in vivo, C57BL/6 mice; design: scale not given here; settings: folic acid acute model
Method: as §3, §2

[6] = system: inflammatory cytokines (TNF, IL-6, IL-1) in renal tissue; experiment: UUO chronic kidney injury, renal inflammatory factor mRNA; type: in vivo, C57BL/6 mice; design: unit not given here; settings: UUO chronic model
From the text: as §1, §2

CN(C)C[C@@H]1C(=O)O[C@H]2[C@H]1CC[C@@]1(C)C[C@]13CC[C@@](C)(O)[C@H]23 [Compound 20]
Havcr1 mRNA expression, kidney ([1]; 1 mg/kg oral, 1 mg/kg): 6.29 ± 2.43
Ngal mRNA expression, kidney ([1]; 1 mg/kg oral, 1 mg/kg): 16.14 ± 2.74
Tumor inhibition rate (%) (CT26 cells): 43.36%*
Tumor weight (CT26 cells): 4.62 ± 1.29 g
tumor-inhibiting effect, CT26 (CT26 cells): tumor-inhibiting effects
Release rate (conversion to Compound 1) ([2]; 1 h, 60 min): 6.2%
Release rate (conversion to Compound 1) ([2]; 2 h, 120 min): 13.8%
Release rate (conversion to Compound 1) ([2]; 4 h, 240 min): 21.7%
Release rate (conversion to Compound 1) ([2]; 8 h, 480 min): 44.3%
Release rate (conversion to Compound 1) ([2]; 12 h, 720 min): 59.1%
Il1 mRNA expression, kidney ([3]; 1 mg/kg oral, 1 mg/kg): 1.06 ± 0.33
Il6 mRNA expression, kidney ([3]; 1 mg/kg oral, 1 mg/kg): 1.55 ± 0.28
Tnf mRNA expression, kidney ([3]; 1 mg/kg oral, 1 mg/kg): 2.31 ± 0.72
Spleen T cells (%) (T cells): 37.19 ± 6.99 %
Tumor T cells (%) (T cells): 29.44 ± 6.07 %
proportion of T cells in tumor tissues and spleens (T cells): significantly increased
Col1a1 mRNA expression, kidney ([4]; 1 mg/kg oral, 1 mg/kg): 7.30 ± 0.90
Tgfb1 mRNA expression, kidney ([4]; 1 mg/kg oral, 1 mg/kg): 1.44 ± 0.21
α-Sma mRNA expression, kidney ([4]; 1 mg/kg oral, 1 mg/kg): 1.26 ± 0.18
Havcr1 mRNA expression, kidney ([5]; 1 mg/kg oral, 1 mg/kg): 62.86 ± 12.20
Ngal mRNA expression, kidney ([5]; 1 mg/kg oral, 1 mg/kg): 13.05 ± 1.82
Il1 mRNA expression, kidney ([6]; 1 mg/kg oral, 1 mg/kg): 2.77 ± 0.40
Il6 mRNA expression, kidney ([6]; 1 mg/kg oral, 1 mg/kg): 3.69 ± 1.26
Tnf mRNA expression, kidney ([6]; 1 mg/kg oral, 1 mg/kg): 5.09 ± 0.66

CC1=C2CC[C@@](C)(OC(=O)N3CCCC3)[C@@H]2[C@H]2OC(=O)[C@@H](CN3CCCC3)[C@@H]2CC1 [Compound 103]
Havcr1 mRNA expression, kidney ([1]; 0.1 mg/kg oral): 117.81 ± 37.55
Ngal mRNA expression, kidney ([1]; 0.1 mg/kg oral): 145.28 ± 50.31
Havcr1 mRNA expression, kidney ([1]; 1 mg/kg oral): 88.33 ± 33.24
Ngal mRNA expression, kidney ([1]; 1 mg/kg oral): 118.82 ± 38.60
Havcr1 mRNA expression, kidney ([1]; 10 mg/kg oral): 93.99 ± 49.52
Ngal mRNA expression, kidney ([1]; 10 mg/kg oral): 104.98 ± 18.55
Tumor inhibition rate (%) (CT26 cells): 39.72%*
Tumor weight (CT26 cells): 4.86 ± 0.72 g
tumor-inhibiting effect, CT26 (CT26 cells): tumor-inhibiting effects
degraded at 1 h ([2]; hepes buffer, pH 7.4, HEPES pH 7.4, 37 °C, 1 h, read-out: Release rate (conversion to Compound 82)): 6.4%
degraded at 2 h ([2]; hepes buffer, pH 7.4, HEPES pH 7.4, 37 °C, 2 h, read-out: Release rate (conversion to Compound 82)): 14.2%
degraded at 4 h ([2]; hepes buffer, pH 7.4, HEPES pH 7.4, 37 °C, 4 h, read-out: Release rate (conversion to Compound 82)): 26%
degraded at 8 h ([2]; hepes buffer, pH 7.4, HEPES pH 7.4, 37 °C, 8 h, read-out: Release rate (conversion to Compound 82)): 45.6%
degraded at 12 h ([2]; hepes buffer, pH 7.4, HEPES pH 7.4, 37 °C, 12 h, read-out: Release rate (conversion to Compound 82)): 52.6%
Il1 mRNA expression, kidney ([3]; 0.1 mg/kg oral): 2.83 ± 1.00
Il6 mRNA expression, kidney ([3]; 0.1 mg/kg oral): 27.33 ± 11.81
Il1 mRNA expression, kidney ([3]; 1 mg/kg oral): 2.79 ± 1.31
Il6 mRNA expression, kidney ([3]; 1 mg/kg oral): 23.47 ± 6.54
Il1 mRNA expression, kidney ([3]; 10 mg/kg oral): 1.65 ± 1.00
Il6 mRNA expression, kidney ([3]; 10 mg/kg oral): 17.94 ± 9.61
Spleen T cells (%) (T cells): 34.22 ± 4.88 %
Tumor T cells (%) (T cells): 27.62 ± 5.12 %
proportion of T cells in tumor tissues and spleens (T cells): significantly increased
Col1a1 mRNA expression, kidney ([4]; 0.1 mg/kg oral): 10.58 ± 2.78
α-Sma mRNA expression, kidney ([4]; 0.1 mg/kg oral): 6.33 ± 0.96
Col1a1 mRNA expression, kidney ([4]; 1 mg/kg oral): 11.02 ± 2.81
α-Sma mRNA expression, kidney ([4]; 1 mg/kg oral): 6.01 ± 1.21
Col1a1 mRNA expression, kidney ([4]; 10 mg/kg oral): 9.31 ± 2.28
α-Sma mRNA expression, kidney ([4]; 10 mg/kg oral): 4.86 ± 0.99
Havcr1 mRNA expression, kidney ([5]; 0.1 mg/kg oral): 452.14 ± 212.69
Ngal mRNA expression, kidney ([5]; 0.1 mg/kg oral): 148.49 ± 116.61
Havcr1 mRNA expression, kidney ([5]; 1 mg/kg oral): 415.10 ± 120.96
Ngal mRNA expression, kidney ([5]; 1 mg/kg oral): 85.57 ± 27.78
Havcr1 mRNA expression, kidney ([5]; 10 mg/kg oral): 331.69 ± 98.67
Ngal mRNA expression, kidney ([5]; 10 mg/kg oral): 69.68 ± 25.32
Il1 mRNA expression, kidney ([6]; 0.1 mg/kg oral): 5.45 ± 2.35
Il6 mRNA expression, kidney ([6]; 0.1 mg/kg oral): 52.89 ± 40.54
Tnf mRNA expression, kidney ([6]; 0.1 mg/kg oral): 4.21 ± 0.82
Il1 mRNA expression, kidney ([6]; 1 mg/kg oral): 3.49 ± 0.93
Il6 mRNA expression, kidney ([6]; 1 mg/kg oral): 32.19 ± 25.90
Tnf mRNA expression, kidney ([6]; 1 mg/kg oral): 3.80 ± 0.40
Il1 mRNA expression, kidney ([6]; 10 mg/kg oral): 3.19 ± 0.85
Il6 mRNA expression, kidney ([6]; 10 mg/kg oral): 31.08 ± 18.80
Tnf mRNA expression, kidney ([6]; 10 mg/kg oral): 3.06 ± 0.47
